Experimental data from US11292807B2 (OCEANS LTD., priority 2015, dated 2022).
Where two headings read alike, the source gives them in different places.

Key:
MDA-MB [1] = conditions: MDA-MB
MDA-MB [2] = test: cells; conditions: Homo sapiens, read-out: Average cell viability, MDA-MB
in vitro = conditions: human, Average cell viability
PC3 = test: CIMA assay, cell viability, PC3; conditions: for Fold change in viability AVG: PC3
[3] = system: U373 (glioblastoma-astrocytoma); test: CIMA assay, cell viability, U373; conditions: for Fold change in viability AVG: U373
[4] = system: SKOV3 (ovarian adenocarcinoma); test: CIMA assay, cell viability, SKOV3; conditions: for Fold change in viability AVG: SKOV
[5] = system: THP-1 (acute monocytic leukemia); test: CIMA assay, cell viability, THP-1; conditions: for Fold change in viability AVG: THP-1
[6] = system: CCD1079SK (fibroblast, noncancerous but proliferating); test: CIMA assay, cell viability, CCD1079SK; conditions: CCD
A549 (lung carcinoma) = test: CIMA assay (colorimetric indicator of metabolic activity), cell viability, A549; conditions: for Fold change in viability AVG: A549

Compound: CCCCC/C=C\C/C=C\CCCCCCCC(=O)O [Compound 20, linoleic acid]
- MDA-MB AVG (MDA-MB [1]; sample at 1 ug/mL): 1.09
- MDA-MB AVG (MDA-MB [1]; sample at 10 ug/mL): 1.04
- MDA-MB AVG (MDA-MB [1]; sample at 50 ug/mL): 0.19
- MDA-MB AVG (MDA-MB [1]; sample at 100 ug/mL): 0.16
- Fold change in viability AVG (MDA-MB [1]; 1 ug/mL): 1.09
- Fold change in viability AVG (MDA-MB [1]; 10 ug/mL): 1.04
- Fold change in viability AVG (MDA-MB [1]; 50 ug/mL): 0.19
- Fold change in viability AVG (MDA-MB [1]; 100 ug/mL): 0.16
- viability at 1 µg/mL (MDA-MB [2]; 1 ug/mL): 100%
- viability at 10 µg/mL (MDA-MB [2]; 10 ug/mL): 95%
- viability at 50 µg/mL (MDA-MB [2]; 50 ug/mL): 17%
- viability at 100 µg/mL (MDA-MB [2]; 100 ug/mL): 15%
- viability at 72 h, 1 ug/mL (in vitro): 93%
- viability at 72 h, 10 ug/mL (in vitro): 97%
- viability at 72 h, 50 ug/mL (in vitro): 13%
- viability at 72 h, 100 ug/mL (in vitro): 6%
- viability at 1 µg/mL (PC3; Homo sapiens, PC-3, read-out: Average cell viability, PC3, 1 ug/mL): 91%
- viability at 10 µg/mL (PC3; Homo sapiens, PC-3, read-out: Average cell viability, PC3, 10 ug/mL): 97%
- viability at 50 µg/mL (PC3; Homo sapiens, PC-3, read-out: Average cell viability, PC3, 50 ug/mL): 11%
- viability at 100 µg/mL (PC3; Homo sapiens, PC-3, read-out: Average cell viability, PC3, 100 ug/mL): 6%
- PC3 AVG (PC3; PC3, sample at 1 ug/mL): 0.94
- PC3 AVG (PC3; PC3, sample at 10 ug/mL): 1.00
- PC3 AVG (PC3; PC3, sample at 50 ug/mL): 0.12
- PC3 AVG (PC3; PC3, sample at 100 ug/mL): 0.06
- Fold change in viability AVG (PC3; 1 ug/mL): 0.94
- Fold change in viability AVG (PC3; 10 ug/mL): 1.00
- Fold change in viability AVG (PC3; 50 ug/mL): 0.12
- Fold change in viability AVG (PC3; 100 ug/mL): 0.06
- viability at 1 µg/mL ([3]; Homo sapiens, U373 MG, read-out: Average cell viability, U373, 1 ug/mL): 87%
- viability at 10 µg/mL ([3]; Homo sapiens, U373 MG, read-out: Average cell viability, U373, 10 ug/mL): 89%
- viability at 50 µg/mL ([3]; Homo sapiens, U373 MG, read-out: Average cell viability, U373, 50 ug/mL): 7%
- viability at 100 µg/mL ([3]; Homo sapiens, U373 MG, read-out: Average cell viability, U373, 100 ug/mL): 5%
- U373 AVG ([3]; U373, sample at 1 ug/mL): 0.89
- U373 AVG ([3]; U373, sample at 10 ug/mL): 0.90
- U373 AVG ([3]; U373, sample at 50 ug/mL): 0.07
- U373 AVG ([3]; U373, sample at 100 ug/mL): 0.05
- Fold change in viability AVG ([3]; 1 ug/mL): 0.89
- Fold change in viability AVG ([3]; 10 ug/mL): 0.90
- Fold change in viability AVG ([3]; 50 ug/mL): 0.07
- Fold change in viability AVG ([3]; 100 ug/mL): 0.05
- viability at 1 µg/mL ([4]; Homo sapiens, SK-OV-3, read-out: Average cell viability, SKOV, 1 ug/mL): 85%
- viability at 10 µg/mL ([4]; Homo sapiens, SK-OV-3, read-out: Average cell viability, SKOV, 10 ug/mL): 88%
- viability at 50 µg/mL ([4]; Homo sapiens, SK-OV-3, read-out: Average cell viability, SKOV, 50 ug/mL): 67%
- viability at 100 µg/mL ([4]; Homo sapiens, SK-OV-3, read-out: Average cell viability, SKOV, 100 ug/mL): 26%
- Fold change in viability AVG ([4]; 1 ug/mL): 0.91
- Fold change in viability AVG ([4]; 10 ug/mL): 0.95
- Fold change in viability AVG ([4]; 50 ug/mL): 0.73
- Fold change in viability AVG ([4]; 100 ug/mL): 0.28
- viability at 1 µg/mL ([5]; Homo sapiens, THP-1, read-out: Average cell viability, THP-1, 1 ug/mL): 91%
- viability at 10 µg/mL ([5]; Homo sapiens, THP-1, read-out: Average cell viability, THP-1, 10 ug/mL): 91%
- viability at 50 µg/mL ([5]; Homo sapiens, THP-1, read-out: Average cell viability, THP-1, 50 ug/mL): 21%
- viability at 100 µg/mL ([5]; Homo sapiens, THP-1, read-out: Average cell viability, THP-1, 100 ug/mL): 17%
- THP-1 AVG ([5]; THP-1, sample at 1 ug/mL): 1.04
- THP-1 AVG ([5]; THP-1, sample at 10 ug/mL): 1.03
- THP-1 AVG ([5]; THP-1, sample at 50 ug/mL): 0.24
- THP-1 AVG ([5]; THP-1, sample at 100 ug/mL): 0.19
- Fold change in viability AVG ([5]; 1 ug/mL): 1.04
- Fold change in viability AVG ([5]; 10 ug/mL): 1.03
- Fold change in viability AVG ([5]; 50 ug/mL): 0.24
- Fold change in viability AVG ([5]; 100 ug/mL): 0.19
- Fold change in viability AVG ([6]; 1 ug/mL): 1.02
- Fold change in viability AVG ([6]; 10 ug/mL): 1.07
- Fold change in viability AVG ([6]; 50 ug/mL): 0.15
- Fold change in viability AVG ([6]; 100 ug/mL): 0.06
- A549 AVG (A549 (lung carcinoma); A549, sample at 1 ug/mL): 1.11
- A549 AVG (A549 (lung carcinoma); A549, sample at 10 ug/mL): 1.12
- A549 AVG (A549 (lung carcinoma); A549, sample at 50 ug/mL): 0.66
- A549 AVG (A549 (lung carcinoma); A549, sample at 100 ug/mL): 0.13
- Fold change in viability AVG (A549 (lung carcinoma); 1 ug/mL): 1.11
- Fold change in viability AVG (A549 (lung carcinoma); 10 ug/mL): 1.12
- Fold change in viability AVG (A549 (lung carcinoma); 50 ug/mL): 0.66
- Fold change in viability AVG (A549 (lung carcinoma); 100 ug/mL): 0.13
- viability at 1 µg/mL (A549 (lung carcinoma); Homo sapiens, A549, read-out: Average cell viability, A549, 1 ug/mL): 95%
- viability at 10 µg/mL (A549 (lung carcinoma); Homo sapiens, A549, read-out: Average cell viability, A549, 10 ug/mL): 96%
- viability at 50 µg/mL (A549 (lung carcinoma); Homo sapiens, A549, read-out: Average cell viability, A549, 50 ug/mL): 56%
- viability at 100 µg/mL (A549 (lung carcinoma); Homo sapiens, A549, read-out: Average cell viability, A549, 100 ug/mL): 11%
